This note sets out measurements from article PMC6894747 (PLoS Pathogens, 2019).

In assay [1] the test system is HIV-1 JR-CSF. The experiment in a line: Inhibitors alone or in combination against HIV-1 JR-CSF. The class given is cell-based. How it is done:
The samples were serially diluted and tested for their inhibitory activity on HIV-1 infection as described above. The data were analyzed for synergistic effect by calculating the combination index (CI) with the CalcuSyn software. CI values of <0.95 and >1.05 indicate synergy and antagonism, respectively. CI <0.1, 0.1–0.3, 0.3–0.7, 0.7–0.85, and 0.85–0.90 indicate very strong synergism, strong synergism, synergism, moderate synergism, and slight synergism, respectively. Fold of dose reduction was calculated with the ratio of concentrations of inhibitor testing alone and in combination.

For a further assay, the system named is HIV-1 clinical strains. The class given is cell-based. Conditions: 8 clinical strains.
The test system of assay [2] is HIV-1 JR-CSF. The experiment in a line: Therapeutic efficacy in humanized mice with established HIV-1 infection. The class given is in vivo, humanized NRG mice. The following applies: n = 4. The procedure: Humanized mice were inoculated with HIV-1 JR-CSF (10 ng p24/mouse) through retro-orbital injection and randomly assigned to 2 groups (4 mice in each group).
HIV-1 genomic RNA was purified from plasma by using the QIAamp Viral RNA Mini Kit. The RNA was reverse-transcribed and quantitatively detected by real-time PCR with the TaqMan Fast Virus 1-Step PCR kit (Thermo Fisher Scientific). We used the forward primer 5’-[…]-3’ and the reverse primer 5’-[…]-3’ to detect the HIV gag gene. […] The limit of detection of each real-time PCR was 4 copies per reaction. Accordingly, owing to the relatively small volume of plasma in mice (about 50–100 μL total blood), the limit of detection was 400 copies/mL plasma. The copy numbers below the detectable limit were set as 1. Triplicate reactions were performed for each sample.

Positions of bridges follow the written chain, without caps; N, C: chain ends. Residues, ends and D or L forms follow the SMILES beside them.

Protocol for HIV-1 clinical strains: Briefly, 1×10^5/mL MT-2 or M7 cells were infected with different HIV-1 viruses at 100 TCID50 (50% tissue culture infective dose) in the presence or absence of peptides at graded concentrations overnight. Then the culture supernatants were replaced with equal volume of fresh medium. On the fourth day post-infection, supernatants were collected and mixed with equal volume of 5% Triton X-100. […] The IC50 values were calculated with CalcuSyn software [35–36], and inhibition curves of best fit were generated with GraphPad Prism.

On to `CC[C@H](C)[C@H](NC(=O)[C@H](CC(C)C)NC(=O)[C@H](CCC(=O)O)NC(=O)[C@H](CCC(=O)O)NC(=O)[C@@H](NC(=O)[C@H](CCCCN)NC(=O)[C@H](CCCCN)NC(=O)[C@@H](NC(=O)[C@H](Cc1ccc(O)cc1)NC(=O)[C@H](CCC(=O)O)NC(=O)[C@H](CCC(=O)O)NC(=O)[C@@H](NC(=O)[C@H](CCCCN)NC(=O)[C@H](CCCCN)NC(=O)[C@H](CC(=O)O)NC(=O)[C@H](Cc1c[nH]c2ccccc12)NC(=O)[C@H](CCC(=O)O)NC(=O)[C@H](CCC(=O)O)NC(=O)[C@H](Cc1c[nH]c2ccccc12)NC(=O)[C@@H](NC(=O)[C@H](CCSC)NC(=O)[C@@H](NC(=O)[C@@H]1CSSC[C@H](NC(=O)[C@@H](N)CC(=O)O)C(=O)N[C@@H](C)C(=O)N[C@@H](Cc2c[nH]c3ccccc23)C(=O)N[C@@H](Cc2c[nH]cn2)C(=O)N[C@@H](CC(C)C)C(=O)NCC(=O)N[C@@H](CCC(=O)O)C(=O)N[C@@H](CC(C)C)C(=O)N[C@@H](C(C)C)C(=O)N[C@@H](Cc2c[nH]c3ccccc23)C(=O)N1)[C@@H](C)O)[C@@H](C)O)[C@@H](C)CC)[C@@H](C)O)[C@@H](C)CC)C(=O)N[C@@H](CCCCN)C(=O)N[C@@H](CCCCN)C(=O)N[C@@H](CO)C(=O)O` [IBP-CP24] (H-DCAWHLGELVWCTMTWEEWDKKIEEYTKKIEELIKKS-OH; disulfide 2-12; N-terminus and C-terminus assumed), for which the Dose reduction in the assay with HIV-1 JR-CSF [1] (mixture 10E8 / IBP-CP24, HIV-1 JR-CSF) is recorded as 9.0 fold; with HIV-1 JR-CSF [1] (mixture C34 / IBP-CP24, HIV-1 JR-CSF), 0.4 fold; in the assay with HIV-1 JR-CSF [1] (mixture VRC07 / IBP-CP24, HIV-1 JR-CSF), 4.4 fold. In the assay on HIV-1 clinical strains (comparison with CP24), the “average IC50 fold of that of CP24, clinical strains” value is listed as approximately 1.1 fold. The “average IC50 fold of that of T20, clinical strains” value in the assay with HIV-1 clinical strains (comparison with T20) is listed as “about 2.5 fold”. In addition, in the assay with HIV-1 JR-CSF [2] (20 mg/kg i.p. once daily for 14 days, coinjected with human IgG 40 mg/kg twice weekly), the “mean Δlog10 plasma HIV-1 RNA” value is 0.13 log10. In addition, the “average decrease of plasma HIV-1 RNA” value with HIV-1 JR-CSF [2] (day 35 post-treatment, after twice daily 20 mg/kg for 21 days plus human IgG) was found to be 1.42 log10.
